Data taken from patent publication US8614327B2 (Vertex Pharmaceuticals Incorporated, priority 2004, dated 2013).

Molecular target: T1, ΔF508-CFTR (Homo sapiens, UniProt P13569, DEL508-508)
T1 construct: expressed in transfected cells
Assay: Membrane potential optical (FRET/VIPR) assay, identification of potentiator compounds
Format: cell-based
Details: Table 3, assay not given; for % Activity: relative efficacy
Method in brief: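 Double-addition potentiator screen: compound delivered in gluconate-substituted Cl^--free medium, membrane potential followed via CC2-DMPE/DiSBAC2(3) FRET on VIPR. Cells were ΔF508-CFTR-expressing NIH3T3 mouse fibroblasts, held 2 h at 37° C. then 24 h at 27° C. before assay.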

T1 sequence (P13569 with tags, fused parts or gaps DEL508-508): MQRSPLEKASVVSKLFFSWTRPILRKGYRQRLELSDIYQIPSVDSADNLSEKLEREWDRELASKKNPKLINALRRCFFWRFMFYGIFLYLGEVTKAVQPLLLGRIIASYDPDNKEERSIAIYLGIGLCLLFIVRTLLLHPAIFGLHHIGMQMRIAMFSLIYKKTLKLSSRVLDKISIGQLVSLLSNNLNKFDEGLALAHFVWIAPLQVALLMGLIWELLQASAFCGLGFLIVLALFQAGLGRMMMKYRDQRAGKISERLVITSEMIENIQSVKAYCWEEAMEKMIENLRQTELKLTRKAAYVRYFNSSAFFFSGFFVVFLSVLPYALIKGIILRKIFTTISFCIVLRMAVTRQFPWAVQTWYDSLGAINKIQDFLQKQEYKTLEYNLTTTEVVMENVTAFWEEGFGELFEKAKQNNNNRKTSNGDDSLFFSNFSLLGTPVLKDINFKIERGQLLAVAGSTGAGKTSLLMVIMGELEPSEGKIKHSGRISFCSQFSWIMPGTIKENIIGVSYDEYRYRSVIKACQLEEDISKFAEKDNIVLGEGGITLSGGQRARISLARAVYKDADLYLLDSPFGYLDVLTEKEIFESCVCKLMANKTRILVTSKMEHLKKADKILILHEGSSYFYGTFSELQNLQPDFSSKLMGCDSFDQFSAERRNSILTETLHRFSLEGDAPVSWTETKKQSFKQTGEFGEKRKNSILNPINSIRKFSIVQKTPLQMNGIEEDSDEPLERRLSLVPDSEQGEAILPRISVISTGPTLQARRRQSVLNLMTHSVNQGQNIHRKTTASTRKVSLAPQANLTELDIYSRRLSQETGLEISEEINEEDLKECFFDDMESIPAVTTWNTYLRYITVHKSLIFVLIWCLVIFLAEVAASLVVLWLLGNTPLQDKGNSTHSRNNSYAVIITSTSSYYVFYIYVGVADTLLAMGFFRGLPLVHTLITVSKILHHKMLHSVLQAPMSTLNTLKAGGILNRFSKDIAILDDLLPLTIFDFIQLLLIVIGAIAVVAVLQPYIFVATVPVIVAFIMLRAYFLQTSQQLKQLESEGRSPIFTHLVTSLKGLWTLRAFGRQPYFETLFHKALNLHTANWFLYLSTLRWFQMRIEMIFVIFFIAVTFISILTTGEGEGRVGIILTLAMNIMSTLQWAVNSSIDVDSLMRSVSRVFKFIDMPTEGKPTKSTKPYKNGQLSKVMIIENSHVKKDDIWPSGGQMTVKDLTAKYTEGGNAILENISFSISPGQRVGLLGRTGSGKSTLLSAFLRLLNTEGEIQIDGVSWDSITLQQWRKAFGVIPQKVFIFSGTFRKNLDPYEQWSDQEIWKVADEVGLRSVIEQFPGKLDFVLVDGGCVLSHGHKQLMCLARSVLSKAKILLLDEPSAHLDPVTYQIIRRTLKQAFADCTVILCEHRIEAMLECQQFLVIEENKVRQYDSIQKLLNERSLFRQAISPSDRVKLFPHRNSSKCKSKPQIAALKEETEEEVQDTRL

Row | SMILES | EC50 [µM] | % Activity
1 | CC(C)(CNC(=O)OCC1CCOC1)c1ccc(NC(=O)c2c[nH]c3ccccc3c2=O)cc1 (stereo not drawn) [Compound 396, [2-methyl-2-[4-[(4-oxo-1H-quinolin-3-yl)carbonylamino]phenyl]-propyl]aminoformic acid tetrahydrofuran-3-ylmethyl ester] | 10 to 25 | ++ (between 25% to 100%)
2 | Cc1ccc(S(=O)(=O)Nc2ccccc2NC(=O)c2c[nH]c3ccccc3c2=O)cc1 [Compound 398, 4-oxo-N-[2-(p-tolylsulfonylamino)phenyl]-1H-quinoline-3-carboxamide] | 10 to 25 | ++ (between 25% to 100%)
3 | O=C(Nc1ccc(N2CCOCC2)nc1)c1c[nH]c2ccccc2c1=O [Compound 400, N-(6-morpholino-3-pyridyl)-4-oxo-1H-quinoline-3-carboxamide] | 25 to 60 | + (<25%)
4 | O=C(Nc1ccc2nc[nH]c2c1)c1c[nH]c2ccccc2c1=O [Compound 414, N-(3H-benzoimidazol-5-yl)-4-oxo-1H-quinoline-3-carboxamide] | 25 to 60 | + (<25%)
5 | O=C(Nc1ccccc1-c1csc2ccccc12)c1c[nH]c2ccccc2c1=O [Compound 417, N-(2-(benzo[b]thiophen-3-yl)phenyl)-1,4-dihydro-4-oxoquinoline-3-carboxamide] | < 10 | ++ (between 25% to 100%)
6 | CN(C)c1cccc(NC(=O)c2c[nH]c3ccccc3c2=O)c1 [Compound 418, N-(3-dimethylaminophenyl)-4-oxo-1H-quinoline-3-carboxamide] | 10 to 25 | ++ (between 25% to 100%)
7 | CC(=O)Nc1cccc(NC(=O)c2c[nH]c3ccccc3c2=O)c1 [Compound 419, N-(3-acetylaminophenyl)-4-oxo-1H-quinoline-3-carboxamide] | 25 to 60 | + (<25%)
8 | CCOC(=O)C(C)(C)c1ccc(NC(=O)c2c[nH]c3ccccc3c2=O)cc1 [Compound 420, 2-methyl-2-[4-[(4-oxo-1H-quinolin-3-yl)carbonylamino]phenyl]-propanoic acid ethyl ester] | < 10 | ++ (between 25% to 100%)
9 | COc1cc(NC(=O)c2c[nH]c3ccccc3c2=O)c(C(F)(F)F)cc1C(C)(C)C [Compound 421, N-[5-methoxy-4-tert-butyl-2-(trifluoromethyl)phenyl]-4-oxo-1H-quinoline-3-carboxamide] | < 10 | ++ (between 25% to 100%)
10 | CCOCCc1c[nH]c2cc(NC(=O)c3c[nH]c4ccccc4c3=O)ccc12 [Compound 423, N-[3-(2-ethoxyethyl)-1H-indol-6-yl]-4-oxo-1H-quinoline-3-carboxamide] | < 10 | ++ (between 25% to 100%)
11 | O=C(Nc1ccccc1-c1ccc(Cl)cc1)c1c[nH]c2ccccc2c1=O [Compound 424, N-[2-(4-chlorophenyl)phenyl]-4-oxo-1H-quinoline-3-carboxamide] | < 10 | ++ (between 25% to 100%)
12 | CC(C)c1ccc(NC(=O)c2c[nH]c3ccccc3c2=O)cc1 [Compound 425, N-(4-isopropylphenyl)-4-oxo-1H-quinoline-3-carboxamide] |  | ++ (between 25% to 100%)
13 | CC(C)(C)c1cc(Cl)c(O)cc1NC(=O)c1c[nH]c2ccccc2c1=O [Compound 426, N-(4-chloro-5-hydroxy-2-tert-butyl-phenyl)-4-oxo-1H-quinoline-3-carboxamide] | < 10 | ++ (between 25% to 100%)
14 | CC(C)(C)OC(=O)N1CCc2c(cccc2NC(=O)c2c[nH]c3ccccc3c2=O)C1 [Compound 427, 5-[(4-oxo-1H-quinolin-3-yl)carbonylamino]-1,2,3,4-tetrahydroisoquinoline-2-carboxylic acid tert-butyl ester] | < 10 | ++ (between 25% to 100%)
15 | CC(C)(C)c1ccc(NC(=O)c2c[nH]c3ccccc3c2=O)cc1O [Compound 428, N-(3-hydroxy-4-tert-butyl-phenyl)-4-oxo-1H-quinoline-3-carboxamide] | < 10 | ++ (between 25% to 100%)
16 | Nc1cc(NC(=O)c2c[nH]c3ccccc3c2=O)cc(C(F)(F)F)c1 [Compound 429, N-[3-amino-5-(trifluoromethyl)phenyl]-4-oxo-1H-quinoline-3-carboxamide] | < 10 | ++ (between 25% to 100%)
17 | Cc1cccc(C(C)C)c1NC(=O)c1c[nH]c2ccccc2c1=O [Compound 430, N-(2-isopropyl-6-methyl-phenyl)-4-oxo-1H-quinoline-3-carboxamide] | < 10 | ++ (between 25% to 100%)
18 | Nc1cccc(NC(=O)c2c[nH]c3ccccc3c2=O)c1 [Compound 431, N-(3-aminophenyl)-4-oxo-1H-quinoline-3-carboxamide] | 10 to 25 | ++ (between 25% to 100%)
19 | CC(C)c1ccc(-c2ccccc2NC(=O)c2c[nH]c3ccccc3c2=O)cc1 [Compound 432, N-[2-(4-isopropylphenyl)phenyl]-4-oxo-1H-quinoline-3-carboxamide] | < 10 | ++ (between 25% to 100%)
20 | CC(C)(C)c1cc(C(C)(C)C)c(NC(=O)c2c[nH]c3ccccc3c2=O)cc1O [Compound 433, N-(5-hydroxy-2,4-ditert-butyl-phenyl)-4-oxo-1H-quinoline-3-carboxamide] | < 10 | 

The next lines start with the values.

Row | EC50 [µM] | % Activity | SMILES
21 | < 10 | ++ (between 25% to 100%) | O=C(Nc1ccc(-c2ccccc2)cc1)c1c[nH]c2ccccc2c1=O [Compound 397, 4-oxo-N-(4-phenylphenyl)-1H-quinoline-3-carboxamide]
22 | < 10 | ++ (between 25% to 100%) | CNc1ccc(C(C)C)c(NC(=O)c2c[nH]c3ccccc3c2=O)c1 [Compound 399, N-(2-isopropyl-5-methylamino-phenyl)-4-oxo-1H-quinoline-3-carboxamide]
23 | < 10 | ++ (between 25% to 100%) | Cc1cccc(-c2ccccc2NC(=O)c2c[nH]c3ccccc3c2=O)c1C [Compound 401, N-[2-(2,3-dimethylphenyl)phenyl]-4-oxo-1H-quinoline-3-carboxamide]
24 | < 10 | + (<25%) | O=C(Nc1ccc(-c2ccccc2)cn1)c1c[nH]c2ccccc2c1=O [Compound 402, 4-oxo-N-(5-phenyl-2-pyridyl)-1H-quinoline-3-carboxamide]
25 | < 10 | ++ (between 25% to 100%) | CC1(c2cc(F)c(NC(=O)c3cnc4ccccc4c3O)cc2O)CCCCCCC1 [Compound 403, N-[2-fluoro-5-hydroxy-4-(1-methylcyclooctyl)-phenyl]-4-hydroxy-quinoline-3-carboxamide]
26 | < 10 | ++ (between 25% to 100%) | COc1cccc(OC)c1-c1cc2cc[nH]c2cc1NC(=O)c1c[nH]c2ccccc2c1=O [Compound 404, N-[5-(2,6-dimethoxyphenyl)-1H-indol-6-yl]-4-oxo-1H-quinoline-3-carboxamide]
27 | < 10 | ++ (between 25% to 100%) | O=C(Nc1ccc(Cl)cc1)c1c[nH]c2ccccc2c1=O [Compound 405, N-(4-chlorophenyl)-4-oxo-1H-quinoline-3-carboxamide]
28 | < 10 | ++ (between 25% to 100%) | CN(c1ccc(F)cc1)S(=O)(=O)c1ccc2[nH]cc(C(=O)Nc3cc4[nH]ccc4cc3C(C)(C)C)c(=O)c2c1 [Compound 406, 6-[(4-fluorophenyl)-methyl-sulfamoyl]-4-oxo-N-(5-tert-butyl-1H-indol-6-yl)-1H-quinoline-3-carboxamide]
29 | < 10 | ++ (between 25% to 100%) | CC(C)(C)c1cc(F)c(NC(=O)c2c[nH]c3cccc(O)c3c2=O)cc1O [Compound 407, N-(2-fluoro-5-hydroxy-4-tert-butyl-phenyl)-5-hydroxy-4-oxo-1H-quinoline-3-carboxamide]
30 | < 10 | ++ (between 25% to 100%) | COc1cccc(NC(=O)c2c[nH]c3ccccc3c2=O)c1 [Compound 408, N-(3-methoxyphenyl)-4-oxo-1H-quinoline-3-carboxamide]
31 | < 10 | ++ (between 25% to 100%) | CCc1ccc(N(C)C)cc1NC(=O)c1c[nH]c2ccccc2c1=O [Compound 409, N-(5-dimethylamino-2-ethyl-phenyl)-4-oxo-1H-quinoline-3-carboxamide]
32 | < 10 | +++ (>100%) | O=C(Nc1ccccc1-c1ccc(Oc2ccccc2)cc1)c1c[nH]c2ccccc2c1=O [Compound 410, 4-oxo-N-[2-(4-phenoxyphenyl)phenyl]-1H-quinoline-3-carboxamide]
33 | < 10 | ++ (between 25% to 100%) | O=C(Nc1ccccc1)c1c[nH]c2cc(Cl)ccc2c1=O [Compound 411, 7-chloro-4-oxo-N-phenyl-1H-quinoline-3-carboxamide]
34 | < 10 | ++ (between 25% to 100%) | CCOC(=O)c1c(NC(=O)c2c[nH]c3ccccc3c2=O)ccc2cc[nH]c12 [Compound 412, 6-[(4-oxo-1H-quinolin-3-yl)carbonylamino]-1H-indole-7-carboxylic acid ethyl ester]
35 | < 10 | ++ (between 25% to 100%) | O=C(Nc1ccccc1Oc1ccccc1)c1c[nH]c2ccccc2c1=O [Compound 413, 4-oxo-N-(2-phenoxyphenyl)-1H-quinoline-3-carboxamide]
36 | < 10 | ++ (between 25% to 100%) | COc1c(C(=O)Nc2ccc(C(C)(C)C)c(O)c2)cnc2ccccc12 [Compound 415, N-(3-Hydroxy-4-tert-butyl-phenyl)-4-methoxy-quinoline-3-carboxamide]
37 | < 10 | ++ (between 25% to 100%) | CCCOC(=O)NCC(C)(C)c1ccc(NC(=O)c2c[nH]c3ccccc3c2=O)cc1 [Compound 416, [2-methyl-2-[4-[(4-oxo-1H-quinolin-3-yl)carbonylamino]phenyl]-propyl]aminoformic acid propyl ester]
